biological target: T1, active p38 alpha enzyme (Upstate Biotechnology) (Homo sapiens, UniProt Q16539); assay: p38α biochemical assay (ATP turnover, luminescent detection, Cambrex PKlight); settings: p38α biochemical assay, Table 1 Biological Activity
T1 construct: purchased Upstate Biotechnology
In short: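 p38α + MapkapK2 (whole protein substrate) + 1.4 uM ATP final; Tris/MOPS buffer with MgCl2, CaCl2, EGTA, EDTA, glycerol, β-ME, BSA; 2 h at 30C; luminescent detection of remaining ATP.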

T1 sequence (Q16539 whole entry): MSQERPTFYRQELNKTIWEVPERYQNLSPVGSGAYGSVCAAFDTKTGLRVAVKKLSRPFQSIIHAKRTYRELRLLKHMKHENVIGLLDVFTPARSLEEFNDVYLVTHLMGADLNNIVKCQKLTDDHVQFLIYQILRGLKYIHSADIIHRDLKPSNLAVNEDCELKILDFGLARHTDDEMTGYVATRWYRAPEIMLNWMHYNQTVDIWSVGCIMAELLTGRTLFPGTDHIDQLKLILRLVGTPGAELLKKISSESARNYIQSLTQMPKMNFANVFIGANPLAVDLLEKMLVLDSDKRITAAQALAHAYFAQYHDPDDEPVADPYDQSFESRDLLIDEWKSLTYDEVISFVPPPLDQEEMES

Cc1cccc(C(=O)NCc2nc(-c3ccc(F)cc3)c(-c3nc(C(=O)NC(C)C)cs3)o2)c1O [Example 142] was tested. Which IC50 did it give?
Its IC50 is greater than 1000 nM.

How did the IC50 turn out when CCOc1ccccc1C(=O)N1CCN(Cc2nc(-c3ccc(F)cc3)c(-c3nc(C(=O)NC(C)C)cs3)o2)CC1 [Example 416] was run?
The IC50 was greater than 1000 nM.

With CC(C)NC(=O)c1csc(-c2oc(CNC(=O)C3CCCO3)nc2-c2ccc(F)cc2)n1 (centres unmarked) [Example 109] as the compound, how does the IC50 read?
Its IC50 is no more than 1000 nM.

How did the IC50 turn out when COc1ccc(/C=C/C(=O)NCc2onc(-c3ccc(F)cc3)c2-c2nc(C(=O)NC(C)C)cs2)cc1O [Example 737] was run?
The IC50 was greater than 1000 nM.

Which IC50 does the source give for CC(C)NC(=O)c1csc(-c2oc(CN3CCN(C(=O)c4ccc(O)cc4O)CC3)nc2-c2ccc(F)cc2)n1 [Example 385] here?
Its IC50 is no more than 1000 nM.

Which IC50 does the source give for CC(C)NC(=O)c1csc(-c2c(-c3ccc(F)cc3)noc2CNC(=O)c2ccncc2)n1 [Example 588] here?
The IC50 was greater than 1000 nM.

Which IC50 does the source give for CC(C)NC(=O)c1csc(-c2oc(CNC(=O)c3cc4ccccc4s3)nc2-c2ccc(F)cc2)n1 [Example 207] here?
The IC50 was no more than 1000 nM.

With CC(C)NC(=O)c1csc(-c2oc(CN3CCN(C(=O)c4ccccc4-c4ccccc4)CC3)nc2-c2ccc(F)cc2)n1 [Example 504] as the compound, how does the IC50 read?
Its IC50 is no more than 1000 nM.

With CC(C)NC(=O)c1csc(-c2c(-c3ccc(F)cc3)noc2CNC(=O)CCc2cccc(C(F)(F)F)c2)n1 [Example 775] as the compound, how does the IC50 read?
The IC50 was greater than 1000 nM.

With CC(C)NC(=O)c1csc(-c2oc(CN3CCN(C(=O)c4cc(Cl)c(O)c(Cl)c4)CC3)nc2-c2ccc(F)cc2)n1 [Example 518] as the compound, how does the IC50 read?
The IC50 was greater than 1000 nM.

same assay, conditions: p38α kinase; Table 1 Biological Activity

COc1ccc(CNC(=O)c2csc(-c3sc(C)nc3-c3ccc(F)cc3)n2)cc1O [Example 1825] was tested. Which IC50 did it give?
The IC50 was no more than 1000 nM.

How did the IC50 turn out when CC(C)NC(=O)c1csc(-c2c(-c3ccc(F)cc3)noc2CN2CCCCC2C)n1 (centres unmarked) [Example 1522] was run?
Its IC50 is greater than 1000 nM.

C=CCN(Cc1onc(-c2ccc(F)cc2)c1-c1nc(C(=O)NC(C)C)cs1)C1CCCCC1 [Example 1556] was tested. Which IC50 did it give?
The IC50 was greater than 1000 nM.

Which IC50 does the source give for Cc1nc(-c2ccc(F)cc2)c(-c2nc(C(=O)Nc3ccc(F)cc3F)cs2)s1 [Example 1979] here?
The IC50 was greater than 1000 nM.

Which IC50 does the source give for COc1ccc(N2CCN(Cc3nc(-c4ccc(F)cc4)c(-c4nc(C(=O)NC(C)C)cs4)o3)CC2)cc1 [Example 1269] here?
Its IC50 is greater than 1000 nM.

For Cc1nc(-c2ccc(F)cc2)c(-c2nc(C(=O)Nc3ccc4c(c3)CCC4)cs2)s1 [Example 1981], which IC50 is on record?
Its IC50 is greater than 1000 nM.

Which IC50 does the source give for CC(C)NC(=O)c1csc(-c2c(-c3ccc(F)cc3)n[nH]c2C2CCN(C(=O)c3ccc(Cl)nc3)CC2)n1 [Example 866] here?
Its IC50 is greater than 1000 nM.

For CC(C)NC(=O)c1csc(-c2c(-c3ccc(F)cc3)noc2CNC2CCN(Cc3ccccc3)CC2)n1 [Example 1501], which IC50 is on record?
The IC50 was greater than 1000 nM.

CC(C)NC(=O)c1csc(-c2c(-c3ccc(F)cc3)noc2CNCc2ccc(F)c(Cl)c2)n1 [Example 1483] was tested. Which IC50 did it give?
Its IC50 is greater than 1000 nM.

For O=C(NC1CCCCC1)c1csc(-c2c(-c3ccc(F)cc3)n[nH]c2C2CCNCC2)n1 [Example 2055], which IC50 is on record?
Its IC50 is greater than 1000 nM.

For CC(C)NC(=O)c1csc(-c2c(-c3ccc(F)cc3)noc2CNCCc2ccc(S(N)(=O)=O)cc2)n1 [Example 1503], which IC50 is on record?
Its IC50 is greater than 1000 nM.

CC(C)NC(=O)c1csc(-c2oc(CNN3CCOCC3)nc2-c2ccc(F)cc2)n1 [Example 1082] was tested. Which IC50 did it give?
The IC50 was greater than 1000 nM.

With O=C(NCC1(O)CCCCC1)c1csc(-c2c(-c3ccc(F)cc3)n[nH]c2C2CCNCC2)n1 [Example 2137] as the compound, how does the IC50 read?
Its IC50 is greater than 1000 nM.

For O=C(NCc1ccc(F)cc1)c1csc(-c2c(-c3ccc(F)cc3)n[nH]c2C2CCNCC2)n1 [Example 2081], which IC50 is on record?
The IC50 was greater than 1000 nM.

CC1CCC(NCc2nc(-c3ccc(F)cc3)c(-c3nc(C(=O)NC(C)C)cs3)o2)CC1 (centres unmarked) [Example 1089] was tested. Which IC50 did it give?
The IC50 was greater than 1000 nM.

With CC(C)NC(=O)c1csc(-c2c(-c3ccc(F)cc3)noc2CN)n1 [Example 810] as the compound, how does the IC50 read?
The IC50 was no more than 1000 nM.

For Cc1nc(-c2ccc(F)cc2)c(-c2nc(C(=O)N(CCO)[C@H](C)c3ccccc3)cs2)s1 [Example 1895], which IC50 is on record?
The IC50 was greater than 1000 nM.

For CC(C)NC(=O)c1csc(-c2c(-c3ccc(F)cc3)noc2CN2CCN(CC3CCCCC3)CC2)n1 [Example 1581], which IC50 is on record?
Its IC50 is greater than 1000 nM.

COc1ccccc1NC(=O)c1csc(-c2sc(C)nc2-c2ccc(F)cc2)n1 [Example 1974] was tested. Which IC50 did it give?
Its IC50 is no more than 1000 nM.

Source: US20060252807A1, “Novel ortho-terphenyl inhibitors of p38 kinase and methods of treating inflammatory disorders” (Kalypsys, Inc., priority 2005, published 2006)
